Experimental data taken from ChEMBL document CHEMBL1152855, “Regioselective synthesis of dispiro[1H-indene-2,3'-pyrrolidine-2',3''-[3H]indole]-1,2''(1''H)-diones of potential anti-tumor properties” (2009).

Legend:
Format in all cases: functional
Details in all cases: route intraperitoneal
Rattus norvegicus [1] = assay: Antiinflammatory activity against carrageenan-induced paw edema in Wister albino rat assessed as inhibition of edema at 50 mg/kg, ip administered 1 hr prior to carrageenan challenge measured after 3 hrs relative to control
Rattus norvegicus [2] = assay: Antiinflammatory activity against carrageenan-induced paw edema in Wister albino rat assessed as inhibition of edema at 50 mg/kg, ip administered 1 hr prior to carrageenan challenge measured after 4 hrs relative to indomethacin
Rattus norvegicus [3] = assay: Antiinflammatory activity against carrageenan-induced paw edema in Wister albino rat assessed as inhibition of edema at 50 mg/kg, ip administered 1 hr prior to carrageenan challenge measured after 4 hrs relative to control
Rattus norvegicus [4] = assay: Antiinflammatory activity against carrageenan-induced paw edema in Wister albino rat assessed as inhibition of edema at 50 mg/kg, ip administered 1 hr prior to carrageenan challenge measured after 1 hr relative to control
Rattus norvegicus [5] = assay: Antiinflammatory activity against carrageenan-induced paw edema in Wister albino rat assessed as inhibition of edema at 50 mg/kg, ip administered 1 hr prior to carrageenan challenge measured after 2 hrs relative to control
Rattus norvegicus [6] = assay: Antiinflammatory activity against carrageenan-induced paw edema in Wister albino rat assessed as inhibition of edema at 10 mg/kg, ip administered 1 hr prior to carrageenan challenge measured after 3 hrs relative to control
Rattus norvegicus [7] = assay: Antiinflammatory activity against carrageenan-induced paw edema in Wister albino rat assessed as inhibition of edema at 10 mg/kg, ip administered 1 hr prior to carrageenan challenge measured after 1 hr relative to control
Rattus norvegicus [8] = assay: Antiinflammatory activity against carrageenan-induced paw edema in Wister albino rat assessed as inhibition of edema at 10 mg/kg, ip administered 1 hr prior to carrageenan challenge measured after 2 hrs relative to control
Rattus norvegicus [9] = assay: Antiinflammatory activity against carrageenan-induced paw edema in Wister albino rat assessed as inhibition of edema at 10 mg/kg, ip administered 1 hr prior to carrageenan challenge measured after 4 hrs relative to control

SMILES | inhibition in vivo at 50 mg/kg (Rattus norvegicus [1]) [%] | activity relative to indomethacin (Rattus norvegicus [2]) [%] | inhibition in vivo at 50 mg/kg (Rattus norvegicus [3]) [%] | inhibition in vivo at 50 mg/kg (Rattus norvegicus [4]) [%] | inhibition in vivo at 50 mg/kg (Rattus norvegicus [5]) [%] | inhibition in vivo at 10 mg/kg (Rattus norvegicus [6]) [%] | inhibition in vivo at 10 mg/kg (Rattus norvegicus [7]) [%] | inhibition in vivo at 10 mg/kg (Rattus norvegicus [8]) [%] | inhibition in vivo at 10 mg/kg (Rattus norvegicus [9]) [%]
[3H]C([3H])([3H])N1C(=O)[C@@]2(c3ccccc31)N(C)C[C@@H](c1ccco1)[C@@]21Cc2ccccc2C1=O | 17.5 | 17 | 8.2 | 50.1 | 33.1 | – | – | – | –
[3H]N1C(=O)[C@@]2(c3ccccc31)N(C)C[C@@H](c1ccccc1)[C@@]21Cc2ccccc2C1=O | 42.5 | 81 | 39.3 | 56 | 40 | – | – | – | –
[3H]N1C(=O)[C@@]2(c3ccccc31)N(C)C[C@@H](c1ccc(C)cc1)[C@@]21Cc2ccccc2C1=O | 27.4 | 35 | 17.1 | 56.4 | 23.8 | – | – | – | –
[3H]N1C(=O)[C@@]2(c3ccccc31)N(C)C[C@@H](c1ccc(F)cc1)[C@@]21Cc2ccccc2C1=O | 21.1 | 45 | 21.8 | 40.6 | 21.2 | – | – | – | –
[3H]C([3H])([3H])N1C(=O)[C@@]2(c3ccccc31)N(C)C[C@@H](c1ccc(F)cc1)[C@@]21Cc2ccccc2C1=O | 26.9 | 53 | 25.5 | 52.9 | 24.6 | – | – | – | –
[3H]C([3H])([3H])N1C(=O)[C@@]2(c3ccccc31)N(C)C[C@@H](c1ccc(C)cc1)[C@@]21Cc2ccccc2C1=O | 6.4 | 29 | 13.9 | 46.9 | 8 | – | – | – | –
[3H]N1C(=O)[C@@]2(c3ccccc31)N(C)C[C@@H](c1ccco1)[C@@]21Cc2ccccc2C1=O | 38.8 | 69 | 33.5 | 48.8 | 53.6 | – | – | – | –
COc1ccc2c(c1)c(CC(=O)O)c(C)n2C(=O)c1ccc(Cl)cc1 [INDOMETHACIN] | – | – | – | – | – | 48.3 | 51 | 45.6 | 48.5
